The record followed here is ChEMBL document CHEMBL1201862, “PubChem BioAssay data set” (2004).

Among the test systems are DLD-1; DMS-114; HOP-18; KM-20L2; LXFL 529; M19-MEL; RXF 631; SNB-78; XF498.
Assay in all cases: DTP human tumour cell line panel, 48 h

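Values below derive from 48-hour exposures of cells grown in 96-well plates, with endpoints linearly interpolated between the two concentrations bracketing the appropriate inhibition level. GI50: concentration for 50% inhibition of growth.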 Active and inactive are the calls of the source. Cut-off read from the data, not from the text of the source: active = GI50 up to about 1.1 µM and inactive = higher. A value given as a limit tells only on which side of the number the result lay.

For `CCCN(CCCCC(NC(C)=O)C(=O)NCc1ccccc1)C(=O)N(CCCl)N=O` (configuration not stated), the GI50 in the assay with DLD-1 is > 68.9 µM (inactive); with DMS-114, 98.2 µM (inactive); in the assay on HOP-18, > 100 µM (inactive); with KM-20L2, > 100 µM (inactive); with LXFL 529 it was > 100 µM (inactive); in the assay with M19-MEL, > 82.6 µM (inactive). The GI50 in the assay with RXF 631, in the assay with SNB-78 and with XF498 was > 100 µM (inactive) in each case.

In the case of `O=[N+]([O-])C(/C=N/Nc1ccccc1)/C=N/Nc1ccccc1`, the GI50 with DLD-1, in the assay on DMS-114, with HOP-18, with KM-20L2, in the assay with LXFL 529 and in the assay on M19-MEL was > 100 µM (inactive) in each case. Also, the GI50 in the assay with SNB-78 and in the assay with XF498 was > 100 µM (inactive) each time.

For `COC(=O)C(/C(=N\O)C(=O)Nc1ccc(Br)cc1)c1nc2ccccc2nc1O` (configuration not stated), the GI50 in the assay with DLD-1 was 35.2 µM (inactive); with DMS-114 it was 20.9 µM (inactive); with HOP-18 it was 52.4 µM (inactive); in the assay with KM-20L2 it was 44 µM (inactive); in the assay on LXFL 529, 28.6 µM (inactive); in the assay on M19-MEL it was 26.1 µM (inactive). Besides, the values for the GI50 in the assay on RXF 631 and in the assay on SNB-78 were 46.9 µM (inactive) and 96.6 µM (inactive), respectively.

Turning to `Cc1nc2ccccc2c(=O)n1NC(=S)Nc1ccc(Cl)cc1[N+](=O)[O-]`, the GI50 in the assay on DMS-114, with KM-20L2, with LXFL 529 and with M19-MEL was > 100 µM (inactive) throughout.

With `COc1ccc(/C=C2\CCC(C)(CN(C)C)C2=O)cc1OC` (configuration not stated), the GI50 in the assay on DLD-1, in the assay on DMS-114, in the assay with HOP-18, with KM-20L2, in the assay with LXFL 529 and in the assay with M19-MEL was > 100 µM (inactive) in each case. Besides, the GI50 in the assay on RXF 631 and in the assay on SNB-78 was > 100 µM (inactive) each time.

Regarding `CNC(=O)CN(CC(=O)O)C(=O)NC`, the GI50 in the assay on DLD-1, in the assay on LXFL 529, with M19-MEL, with RXF 631, in the assay with SNB-78 and in the assay with XF498 was > 100 µM (inactive) in each case.

With `COc1ccc(C2C(Cl)C(=O)N2n2cnc3ccccc3c2=O)cc1OC` (configuration not stated), the GI50 is > 100 µM (inactive) in the assay with DMS-114; 25.3 µM (inactive) in the assay on HOP-18; > 100 µM (inactive) with KM-20L2; > 100 µM (inactive) in the assay on LXFL 529; > 100 µM (inactive) in the assay with M19-MEL; > 100 µM (inactive) with SNB-78. For the same compound, the GI50 in the assay on XF498 was > 100 µM (inactive).

For `C[P+](C)(CC(F)(F)F)c1ccccc1`, the GI50 in the assay on DLD-1, with DMS-114, with HOP-18, in the assay with KM-20L2, in the assay with LXFL 529 and with M19-MEL was > 100 µM (inactive) throughout. Also, the GI50 in the assay on SNB-78 was > 100 µM (inactive); in the assay on XF498 it was < 0.01 µM (active).

As for `N#CCN1CCOCCOCCN(CC#N)CCOCCOCC1`, the GI50 with DLD-1, in the assay with DMS-114, with HOP-18, in the assay with KM-20L2, in the assay on LXFL 529 and with M19-MEL was > 100 µM (inactive) each time. Moreover, the GI50 in the assay with RXF 631 and with SNB-78 was > 100 µM (inactive) throughout.

Take `COc1cc2c(cc1OC)c1c(OC)c(OC)cc3c1c1c2sc(=S)n1CC3`: the GI50 in the assay on DLD-1 was 43 µM (inactive); in the assay with DMS-114, 29.3 µM (inactive); in the assay on HOP-18, > 100 µM (inactive); with KM-20L2 it was > 100 µM (inactive); with LXFL 529, 35.1 µM (inactive); in the assay with M19-MEL, 34.4 µM (inactive). The GI50 in the assay on SNB-78 is > 100 µM (inactive).

`C#CC1/C(=C\C(=O)OC)CCCC1O` (configuration not stated): the GI50 in the assay on DLD-1, in the assay with DMS-114, with HOP-18, in the assay with KM-20L2, in the assay with LXFL 529 and in the assay on M19-MEL was > 100 µM (inactive) throughout. Moreover, the GI50 in the assay with SNB-78 and in the assay with XF498 was > 100 µM (inactive) each time.

`CC(=O)Oc1cc2c(cc1OC(C)=O)C1(C)CCC2(C)c2cc(OC(C)=O)c(OC(C)=O)cc21`: the GI50 in the assay with DLD-1 was 17.7 µM (inactive); with KM-20L2 it was 26 µM (inactive); in the assay on LXFL 529 it was 4.99 µM (inactive); in the assay with M19-MEL, 9.04 µM (inactive); in the assay on RXF 631 it was 23.2 µM (inactive); in the assay on SNB-78, 16 µM (inactive). For the same compound, the GI50 in the assay on XF498 was 11.4 µM (inactive).

For `C=C(C)C(=O)OC1CC2=CC(CC3(C)OC3C3OC(=O)C(=C)C13)OC2=O` (configuration not stated), the GI50 in the assay with DLD-1 is 1.99 µM (inactive); with DMS-114, 15.2 µM (inactive); with HOP-18, 19.9 µM (inactive); with KM-20L2 it was 15 µM (inactive); in the assay on LXFL 529, 2.51 µM (inactive); in the assay with M19-MEL it was 6.62 µM (inactive). Besides, the GI50 was 15.8 µM (inactive) with RXF 631 and 12.1 µM (inactive) in the assay with SNB-78.

Take `CC(C)N1CN(C(C(=O)N[C@@H]2C(=O)N3C2SC(C)(C)C3C(=O)O)c2ccccc2)CSC1=S` (some centres not stated): the GI50 with DLD-1 was > 100 µM (inactive); with DMS-114 it was 48.5 µM (inactive); in the assay on HOP-18 it was > 100 µM (inactive); in the assay with KM-20L2 it was > 100 µM (inactive); with LXFL 529, > 100 µM (inactive); in the assay on M19-MEL it was > 100 µM (inactive). Further, the GI50 in the assay on SNB-78 and in the assay with XF498 was > 100 µM (inactive) throughout.

As to `CN(N=O)C(=O)N(N)CCCCC(NC(=O)OCc1ccccc1)C(=O)OCc1ccccc1` (configuration not stated), the GI50 in the assay with DLD-1 was 58.7 µM (inactive); with DMS-114, 44 µM (inactive); in the assay with KM-20L2, > 100 µM (inactive); in the assay on LXFL 529, 53.2 µM (inactive); with M19-MEL, 36.1 µM (inactive); with SNB-78, 31.9 µM (inactive). The GI50 in the assay on XF498 is 8.41 µM (inactive).

For `COc1ccc2n[se]nc2c1`, the GI50 in the assay on DLD-1 is > 100 µM (inactive); with DMS-114, > 100 µM (inactive); in the assay with HOP-18 it was < 0.01 µM (active); in the assay with KM-20L2 it was > 100 µM (inactive); with LXFL 529, > 100 µM (inactive); with RXF 631 it was 61.4 µM (inactive). Besides, the GI50 with SNB-78 and in the assay on XF498 was > 100 µM (inactive) throughout.

In the case of `CCC(=O)C12OC3OC(C)(C)OC3C1OC(C)(C)O2` (configuration not stated), the GI50 in the assay with DLD-1, in the assay with M19-MEL, in the assay on RXF 631, in the assay with SNB-78 and with XF498 was > 100 µM (inactive) in each case.

For the compound `O=C1CCCC1NC(=O)C(F)(F)F` (configuration not stated), the GI50 in the assay with DLD-1, in the assay on LXFL 529, in the assay on M19-MEL, with SNB-78 and with XF498 was > 100 µM (inactive) in each case.

For the compound `O=C(O)CN(c1ccccc1)S(=O)(=O)c1ccccc1[N+](=O)[O-]`, the GI50 with DLD-1, in the assay on HOP-18, with KM-20L2, in the assay with LXFL 529, in the assay with M19-MEL and in the assay on RXF 631 was > 100 µM (inactive) in each case. Besides, the GI50 in the assay with XF498 was > 100 µM (inactive).

On to `COc1cccc(/C=C2\CCC(CCN(C)C)(C3=CCCC3)C2=O)c1` (configuration not stated), for which the GI50 in the assay with DLD-1 is 17.8 µM (inactive); in the assay on DMS-114 it was 14.3 µM (inactive); with HOP-18 it was 13.7 µM (inactive); in the assay with LXFL 529, 15.5 µM (inactive); in the assay on M19-MEL, 16.4 µM (inactive); with RXF 631, 23.7 µM (inactive). For the same compound, the GI50 in the assay with XF498 is 17.7 µM (inactive).

For the compound `CN1CCN(CN2C(=O)C3C4C=CC(C3C2=O)C2C3C(=O)N(CN5CCN(C)CC5)C(=O)C3C42)CC1` (configuration not stated), the GI50 in the assay with DLD-1 is 22.5 µM (inactive); in the assay on DMS-114, 17.9 µM (inactive); in the assay with KM-20L2 it was 25 µM (inactive); with LXFL 529, 19.9 µM (inactive).

As usually defined, the GI50 is the concentration that inhibits growth by half.
